This note sets out measurements from patent US20240174684A1, “INHIBITORS OF cGAS ACTIVITY AS THERAPEUTIC AGENTS” (BELLBROOK LABS, LLC, priority 2021, published 2024).

The solubility (kinetic) is solubility judged after dilution from a stock solution rather than from solid. One may read the IC50 as the concentration that gives 50% inhibition. Read a low IC50 as greater potency in that assay.

Converted amounts (≈) assume the structure as drawn. Bounds are passed on as bounds.

Series [1] relates to MDCK cells expressing human MDR1 (P-glycoprotein). Nature of the series: MDCK-MDR1 permeability A→B. It is filed as in vitro ADME, Canine. In short, it runs like this:
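Permeability measured apical-to-basolateral in MDCK cells expressing human MDR1, reported as binned ranges in cm/s×10^−6. Metabolic stability determined as half-life in mouse and human hepatocytes, reported as binned ranges in minutes.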

The nature of series [2]: Metabolic stability in mouse liver microsomes. It is filed as in vitro ADME. The conditions noted are these: read-out: Mouse MS Stability t1/2. The protocol: (§1) ADME studies: Compound A and the compounds of the disclosure were tested for aqueous solubility (KSOL), metabolic stability (human and mouse […]) and permeability (Caco-2 and/or MDR1-MDCK cells) to provide an initial indication of oral bioavailability.
(§2) The MDCK-MDR1 permeability A ->B is shown in Table 2 below, where A represents 5-10 cm/s×10^−6; B represents 1-5 cm/s×10^−6; and C represents <1 cm/ss×10^−6. The metabolic stability half time, in both mouse and human hepatocytes, is also shown in Table 2 below, where A′ represents 100-200 minutes; B′ represents 200-300 minutes; and C′ represents >300 minutes.

Series [3] in a line: Metabolic stability in human liver microsomes. Type of series: in vitro ADME. To be noted: read-out: Human MS Stability t1/2. The protocol:
as §1, §2
For orientation: Liver microsomes are a subcellular fraction often used to study metabolism.

Series [4] can be described thus: Kinetic aqueous solubility (KSOL) in PBS, pH 7.4. It is filed as physicochemical. The conditions noted are these: aqueous buffer, kinetic from dmso stock. The protocol:
as §1
The favorable physicochemical properties are reflected in promising results in in vitro ADME tests. […] Metabolic stability, which was routinely measured with mouse and human hepatocytes, is outstanding, with t, greater than 2 hours for all of the compounds of the disclosure in which it has been measured. Cell permeability was measured using MDCK cells expressing human MDR1 (P-glycoprotein) to assess passive permeability as well as active transport out of the cell. […] Numerous compounds in Table 1 meet these permeability criteria, which is consistent with their design for TPSA <140 Å^2 and increased lipophilicity.

Series [5] has as its system IFNβ production in THP-1 cells. Nature of the series: IFNβ ELISA in THP-1 cells. The conditions noted are these: Homo sapiens; THP-1 cells. It is filed as cell-based, human. In short, it runs like this: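 THP-1 cells stimulated with dsDNA or cGAMP (STING activation bypassing cGAS) in the presence of compound; IFNβ secreted into medium quantified by ELISA. IC50 values reported in potency bins.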
Background: An ELISA detects its analyte on a solid surface through an enzyme-linked reagent.

In the case of `Cc1nc(N2C[C@@H](CC(=O)Nc3ccncc3)C[C@H]2C(=O)O)c2oc3ccccc3c2n1` [Compound A, (2S,4R)-1-(2-methylbenzofuro[3,2-d]pyrimidin-4-yl)-4-(2-oxo-2-(pyridine-4-ylamino)ethyl)pyrrolidine-2-carboxylic acid, reference compound], in series [1], the “MDCK-MDR Permeability A→B” value is “C (C represents <1 cm/ss×10^−6)”. In addition, the half-life in series [2] and in series [3] was 1.67 to 3.33 h throughout. Moreover, the kinetic solubility in series [4] was 542 µM (≈ 234 µg/mL). Besides, the concentration for half-maximal inhibition (IC50) in series [5] is over 20 µM.
